{"source": "ChEMBL document CHEMBL1131871", "about": "“Piperidinylpyrroles: design, synthesis and binding properties of novel and selective dopamine D4 receptor ligands” (Bioorg Med Chem Lett, 1999)", "data": [{"target": "T1, D(2) dopamine receptor (Homo sapiens, UniProt P14416)", "T1 sequence (P14416 whole entry)": "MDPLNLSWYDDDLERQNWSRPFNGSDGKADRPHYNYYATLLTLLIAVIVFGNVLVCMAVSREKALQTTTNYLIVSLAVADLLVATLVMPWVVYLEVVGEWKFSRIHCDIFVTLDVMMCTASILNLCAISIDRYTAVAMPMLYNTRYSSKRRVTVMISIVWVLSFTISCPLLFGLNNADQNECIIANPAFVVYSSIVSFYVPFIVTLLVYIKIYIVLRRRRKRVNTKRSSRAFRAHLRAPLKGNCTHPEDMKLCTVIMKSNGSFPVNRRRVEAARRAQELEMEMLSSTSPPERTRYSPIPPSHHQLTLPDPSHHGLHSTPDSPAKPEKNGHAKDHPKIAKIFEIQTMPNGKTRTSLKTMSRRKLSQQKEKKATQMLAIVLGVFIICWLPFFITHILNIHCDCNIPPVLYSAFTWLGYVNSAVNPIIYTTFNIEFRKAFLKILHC", "experiment": "Displacement of [3H]spiperone from human Dopamine receptor D2L expressed in CHO cells", "assay_type": "cell-based", "units": {"Ki": "µM"}, "values": [{"smiles": "C(#Cc1cccn1C1CCN(Cc2ccccc2)CC1)c1ccccc1", "Ki": 10}, {"smiles": "N#CC(C#N)=Cc1ccn(C2CCN(Cc3ccccc3)CC2)c1", "Ki": 13}, {"smiles": "c1ccc(CN2CCC(n3cccc3-c3cnco3)CC2)cc1", "Ki": 0.61}, {"smiles": "Ic1cccn1C1CCN(Cc2ccccc2)CC1", "Ki": 8.5}, {"smiles": "c1ccc(CN2CCC(n3ccc(-c4cnco4)c3)CC2)cc1", "Ki": 3.4}, {"smiles": "C[Si](C)(C)C#Cc1cccn1C1CCN(Cc2ccccc2)CC1", "Ki": 6.2}, {"smiles": "O=Cc1cccn1C1CCN(Cc2ccccc2)CC1", "Ki": 1.4}, {"smiles": "C#Cc1cccn1C1CCN(Cc2ccccc2)CC1", "Ki": 6.6}, {"smiles": "N#CC(C#N)=Cc1cccn1C1CCN(Cc2ccccc2)CC1", "Ki": 11}, {"smiles": "c1ccc(CN2CCC(n3cccc3)CC2)cc1", "Ki": 8.5}, {"smiles": "O=Cc1ccn(C2CCN(Cc3ccccc3)CC2)c1", "Ki": 49}]}, {"target": "D(3) dopamine receptor (Homo sapiens, UniProt P35462)", "sequence (P35462 whole entry)": "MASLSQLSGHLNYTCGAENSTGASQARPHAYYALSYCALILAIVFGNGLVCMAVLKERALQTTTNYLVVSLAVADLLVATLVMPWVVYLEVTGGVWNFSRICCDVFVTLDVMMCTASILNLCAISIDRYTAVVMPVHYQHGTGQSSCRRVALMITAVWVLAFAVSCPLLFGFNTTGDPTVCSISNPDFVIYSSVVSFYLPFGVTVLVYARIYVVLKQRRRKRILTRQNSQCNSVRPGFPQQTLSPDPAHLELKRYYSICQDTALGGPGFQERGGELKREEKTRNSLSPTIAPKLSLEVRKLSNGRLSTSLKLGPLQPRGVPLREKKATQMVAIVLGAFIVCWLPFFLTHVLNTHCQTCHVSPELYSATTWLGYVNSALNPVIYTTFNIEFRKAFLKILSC", "experiment": "Displacement of [3H]spiperone from human Dopamine receptor D3 expressed in CHO cells", "assay_type": "cell-based", "units": {"Ki": "µM"}, "values": [{"smiles": "C(#Cc1cccn1C1CCN(Cc2ccccc2)CC1)c1ccccc1", "Ki": 8.7}, {"smiles": "N#CC(C#N)=Cc1ccn(C2CCN(Cc3ccccc3)CC2)c1", "Ki": 7}, {"smiles": "c1ccc(CN2CCC(n3cccc3-c3cnco3)CC2)cc1", "Ki": 0.77}, {"smiles": "Ic1cccn1C1CCN(Cc2ccccc2)CC1", "Ki": 2.6}, {"smiles": "c1ccc(CN2CCC(n3ccc(-c4cnco4)c3)CC2)cc1", "Ki": 6.8}, {"smiles": "C[Si](C)(C)C#Cc1cccn1C1CCN(Cc2ccccc2)CC1", "Ki": 7.7}, {"smiles": "O=Cc1cccn1C1CCN(Cc2ccccc2)CC1", "Ki": 2.5}, {"smiles": "C#Cc1cccn1C1CCN(Cc2ccccc2)CC1", "Ki": 7.9}, {"smiles": "N#CC(C#N)=Cc1cccn1C1CCN(Cc2ccccc2)CC1", "Ki": 5.1}, {"smiles": "c1ccc(CN2CCC(n3cccc3)CC2)cc1", "Ki": 15}, {"smiles": "O=Cc1ccn(C2CCN(Cc3ccccc3)CC2)c1", "Ki": 31}]}, {"target": "T1, D(2) dopamine receptor", "experiment": "Displacement of [3H]spiperone from human Dopamine receptor D2S expressed in CHO cells", "assay_type": "cell-based", "units": {"Ki": "µM"}, "values": [{"smiles": "C(#Cc1cccn1C1CCN(Cc2ccccc2)CC1)c1ccccc1", "Ki": 8.3}, {"smiles": "N#CC(C#N)=Cc1ccn(C2CCN(Cc3ccccc3)CC2)c1", "Ki": 18}, {"smiles": "c1ccc(CN2CCC(n3cccc3-c3cnco3)CC2)cc1", "Ki": 0.32}, {"smiles": "Ic1cccn1C1CCN(Cc2ccccc2)CC1", "Ki": 5.3}, {"smiles": "c1ccc(CN2CCC(n3ccc(-c4cnco4)c3)CC2)cc1", "Ki": 3.2}, {"smiles": "C[Si](C)(C)C#Cc1cccn1C1CCN(Cc2ccccc2)CC1", "Ki": 4.9}, {"smiles": "O=Cc1cccn1C1CCN(Cc2ccccc2)CC1", "Ki": 1.5}, {"smiles": "C#Cc1cccn1C1CCN(Cc2ccccc2)CC1", "Ki": 6.3}, {"smiles": "N#CC(C#N)=Cc1cccn1C1CCN(Cc2ccccc2)CC1", "Ki": 7.8}, {"smiles": "c1ccc(CN2CCC(n3cccc3)CC2)cc1", "Ki": 9.8}, {"smiles": "O=Cc1ccn(C2CCN(Cc3ccccc3)CC2)c1", "Ki": 65}]}, {"target": "T2, D(4) dopamine receptor (Homo sapiens, UniProt P21917)", "T2 sequence (P21917 whole entry)": "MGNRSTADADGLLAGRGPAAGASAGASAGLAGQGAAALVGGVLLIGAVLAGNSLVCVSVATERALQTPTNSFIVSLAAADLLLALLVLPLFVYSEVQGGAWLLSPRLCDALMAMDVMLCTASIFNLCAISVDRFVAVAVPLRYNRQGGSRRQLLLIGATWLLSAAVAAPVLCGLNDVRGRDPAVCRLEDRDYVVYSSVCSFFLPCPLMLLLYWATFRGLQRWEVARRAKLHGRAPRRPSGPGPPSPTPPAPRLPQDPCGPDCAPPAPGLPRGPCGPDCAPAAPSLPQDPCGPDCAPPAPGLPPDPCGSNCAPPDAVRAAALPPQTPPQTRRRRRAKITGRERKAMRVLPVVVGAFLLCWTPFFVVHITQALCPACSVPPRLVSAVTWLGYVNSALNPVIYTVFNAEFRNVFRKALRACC", "experiment": "Displacement of [3H]spiperone from human Dopamine receptor D4.4 expressed in CHO cells", "assay_type": "cell-based", "units": {"Ki": "µM"}, "values": [{"smiles": "C(#Cc1cccn1C1CCN(Cc2ccccc2)CC1)c1ccccc1", "Ki": 3.3}, {"smiles": "N#CC(C#N)=Cc1ccn(C2CCN(Cc3ccccc3)CC2)c1", "Ki": 0.23}, {"smiles": "c1ccc(CN2CCC(n3cccc3-c3cnco3)CC2)cc1", "Ki": 0.063}, {"smiles": "Ic1cccn1C1CCN(Cc2ccccc2)CC1", "Ki": 1.5}, {"smiles": "c1ccc(CN2CCC(n3ccc(-c4cnco4)c3)CC2)cc1", "Ki": 0.13}, {"smiles": "C[Si](C)(C)C#Cc1cccn1C1CCN(Cc2ccccc2)CC1", "Ki": 2.7}, {"smiles": "O=Cc1cccn1C1CCN(Cc2ccccc2)CC1", "Ki": 0.2}, {"smiles": "C#Cc1cccn1C1CCN(Cc2ccccc2)CC1", "Ki": 0.94}, {"smiles": "N#CC(C#N)=Cc1cccn1C1CCN(Cc2ccccc2)CC1", "Ki": 0.28}, {"smiles": "c1ccc(CN2CCC(n3cccc3)CC2)cc1", "Ki": 1.1}, {"smiles": "O=Cc1ccn(C2CCN(Cc3ccccc3)CC2)c1", "Ki": 0.96}]}, {"target": "D(1A) dopamine receptor (Bos taurus, UniProt Q95136)", "sequence (Q95136 whole entry)": "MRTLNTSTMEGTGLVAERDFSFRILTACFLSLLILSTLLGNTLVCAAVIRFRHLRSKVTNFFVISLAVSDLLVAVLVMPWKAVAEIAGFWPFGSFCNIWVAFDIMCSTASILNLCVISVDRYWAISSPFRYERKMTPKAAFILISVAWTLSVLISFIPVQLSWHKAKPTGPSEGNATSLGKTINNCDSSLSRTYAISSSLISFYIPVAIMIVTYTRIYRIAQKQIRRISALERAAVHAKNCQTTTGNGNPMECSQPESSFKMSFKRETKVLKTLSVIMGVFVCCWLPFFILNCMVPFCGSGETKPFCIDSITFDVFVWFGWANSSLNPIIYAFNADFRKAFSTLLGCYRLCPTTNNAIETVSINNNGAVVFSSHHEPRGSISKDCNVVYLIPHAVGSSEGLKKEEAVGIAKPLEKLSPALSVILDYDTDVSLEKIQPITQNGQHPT", "experiment": "Displacement of [3H]SCH-23390 from bovine striatal membrane Dopamine receptor D1", "units": {"Ki": "µM"}, "values": [{"smiles": "C(#Cc1cccn1C1CCN(Cc2ccccc2)CC1)c1ccccc1", "Ki": 16}, {"smiles": "N#CC(C#N)=Cc1ccn(C2CCN(Cc3ccccc3)CC2)c1", "Ki": 14}, {"smiles": "c1ccc(CN2CCC(n3cccc3-c3cnco3)CC2)cc1", "Ki": 10}, {"smiles": "Ic1cccn1C1CCN(Cc2ccccc2)CC1", "Ki": 11}, {"smiles": "c1ccc(CN2CCC(n3ccc(-c4cnco4)c3)CC2)cc1", "Ki": 39}, {"smiles": "C[Si](C)(C)C#Cc1cccn1C1CCN(Cc2ccccc2)CC1", "Ki": 14}, {"smiles": "O=Cc1cccn1C1CCN(Cc2ccccc2)CC1", "Ki": 5.8}, {"smiles": "C#Cc1cccn1C1CCN(Cc2ccccc2)CC1", "Ki": 14}, {"smiles": "N#CC(C#N)=Cc1cccn1C1CCN(Cc2ccccc2)CC1", "Ki": 15}, {"smiles": "c1ccc(CN2CCC(n3cccc3)CC2)cc1", "Ki": 34}, {"smiles": "O=Cc1ccn(C2CCN(Cc3ccccc3)CC2)c1", "Ki": 61}]}]}
